These are literature values, as cited in PMC7032176 (Asian Journal of Pharmaceutical Sciences, 2018).

For series [1] the following is noted: at 25 °C.

As to `CC(C)(Sc1cc(C(C)(C)C)c(O)c(C(C)(C)C)c1)Sc1cc(C(C)(C)C)c(O)c(C(C)(C)C)c1` [Probucol], the oral bioavailability result is listed as “up to 6%”. Moreover, the water solubility entry in series [1] is on record as “about 5 ng/ml”.
